One data set addresses T1, Kallikrein (Homo sapiens, UniProt P03952).
T1 construct: purchased Sigma Aldrich
Description: Kallikrein assays (Z-Phe-Arg-amc substrate). The data set is classed as biochemical. Particulars: IC50 for inhibition of kallikrein activity, 0.1 nM kallikrein, 100 μM substrate, 30° C. As to the method: Enzymes were purchased from Sigma Aldrich and substrates from Bachem A G. The assay buffer is composed of 10 mM Tris pH 7.4, 150 mM NaCl, 10 mM MgCl2, 1 mM CaCl2, 0.1% BSA, 0.01% Triton X100 and 5% DMSO. Enzymes are incubated with inhibitors for 30 minutes at RT prior to addition of substrate. All experiments were recorded at 30° C. for 90 minutes.
Assays were performed on a BMG Pherastar plate reader at wavelengths of exc/em 350/450 nm. Kallikrein was bought as a solution of 1080 μg/mL and diluted to a working concentration of 0.3 nM in assay buffer. Substrate Z-Phe-Arg-amc was solubilised at the stock concentration of 10 mM in DMSO and diluted to a working concentration of 300 μM with assay buffer. Inhibitors were solubilised in assay buffer to a stock concentration of 60 μM. 50 μL of each reagent is introduced in wells for a final volume of 150 μL per well. Final concentration of kallikrein in assay is 0.1 nM and substrate is 100 μM.
Final concentrations of inhibitors were: 0.5 nM, 1 nM, 2 nM, 5 nM, 8 nM, 10 nM, 20 nM, 50 nM, 80 nM, 100 nM, 200 nM, 500 nM, 800 nM, 1 μM, 2 μM, 5 μM, 8 μM, 10 μM and 20 μM. The initial rate of the reaction is obtained by plotting fluorescence=f (time) data and by fitting a linear trendline for each concentration of inhibitor. The inhibition curves are obtained by plotting initial rate=f ([I]) and IC50 values can be evaluated.

Data set [1] has as its target bovine serum albumin (BSA) (Bos taurus, UniProt P02769). Briefly: Fluorescence anisotropy titration with BSA. Particulars: for binding to BSA (change in anisotropy): titration with BSA, FIG. 4. From the text: For determining the affinity constant (Kd) of a fluorophore to target protein, we chose fluorescence anisotropy titrations.
Excitation was specific for coumarin (328 nm), and emission at 393 nm.
To determine whether a neighbouring group (here, Gly) on Fmoc affects binding to BSA, a similar experiment was run with Fmoc-Gly-OH (Nova Biochem). The intrinsic fluorescing properties of Fmoc were used for the anisotropy experiments.
To determine whether a neighbouring hydrophobic bulky group has an enhancing or adverse effect on BSA binding, Fmoc-Phe-OH was tested as above.
The solid phase resin employed was PAL-PEG-PS from Applied Biosystems. […] All peptides were capped with an N-terminal Fmoc, and a C-terminal amide (NH2). After cleavage, peptides were lyophilised, and solubilised in 5 mL of DMF. 100 μl of this was loaded onto an analytical C18 column using a Waters HPLC, using methanol and water (both in the presence of 0.1% TFA) as solvents. […] The peptide concentration in the cuvette was 200 nM.
Excitation was at 299 nm (to minimise Trp absorption), and emission at 320 nm. Slit widths were at 5 and 12 nm, respectively.
Peptide concentrations were estimated by the absorbance at 299 nm, using the extinction coefficient of 4700/M/cm. Excitation was at 299 nm, and emission was set to 320 nm, at slit widths of 5 and 12 nm, respectively.

Another data set relates to Subtilisin. Description: Peptide conjugate digestion with Subtilisin. The data set is classed as in vitro ADME. To be noted: 37° C. for 1 hr. How it is done:
(§1) Linear peptides (PK15 and CG4L1-PK15L1) were first treated with iodoacetamide prior to digestion studies. The peptides (ca 3-4 mg) were purified by HPLC (semi-prep Proteo column as described in general methods), and the HPLC fraction (ca 3 ml) was neutralised with an equal volume of 50 mM ammonium bicarbonate. […] The reaction mixture was concentrated (rotary evaporator) and re-purified by HPLC as above.
(§2) Peptides (linear and conjugates) were dissolved in water at a concentration of 1 mg/ml, giving an effective concentration of −0.5 mM stock solutions. 2 μl of peptide conjugates (˜30 μM in reactions depending on actual molecular weight) where dissolved in reaction buffer (see below) in a total reaction volume of 30 μl, followed by the protease, and samples were incubated at 37° C. for 1 hr. 10 μl aliquots were quenched into 20 μl of 10% dichloroacetic acid in MeCN/H2O (1:1) and stored at −20° C. for 30 minutes, centrifuged at 4° C. (13000 rpm) for 5 minutes and then spotted onto MALDI-TOF mass spectrometer plate for analysis.
(§3) All reactions at 37° C. Cathepsin G and kalikrein reactions were carried out in 10 mM Tris pH 7.4, 150 mM NaCl, 10 mM MgCl2, 1 mM CaCl2, 0.1% BSA, 0.01% Triton X100, 5% DMSO. Chymotrypsin reactions were carried out in 100 mM Tris pH 7.4, 10 mM CaCl2. Pronase and proteinase K reactions were carried out in 100 mM Tris pH 7.4, 0.5% SDS. Subtilisin reactions were carried out in 50 mM KH2PO4 pH 7.5. Trypsin reactions were carried out in 67 mM sodium phosphate pH 7.6. Reaction conditions with serum involve dissolving the peptide in 1×PBS (total volume 24 μl) and 6 μl of human serum added to the reaction.

Another data set deals with T2, Cathepsin G (Homo sapiens, UniProt P08311).
T2 sequence (P08311 21-244): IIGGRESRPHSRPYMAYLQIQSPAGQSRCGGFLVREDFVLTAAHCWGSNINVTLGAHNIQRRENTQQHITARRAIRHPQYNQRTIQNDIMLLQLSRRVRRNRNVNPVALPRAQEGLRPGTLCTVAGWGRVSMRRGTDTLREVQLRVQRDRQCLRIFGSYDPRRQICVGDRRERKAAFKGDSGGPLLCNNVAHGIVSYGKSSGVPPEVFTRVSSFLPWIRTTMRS
Description: Peptide conjugate digestion with Cathepsin G. Further details: key to the marks not given beside the values. To be noted: 37° C. for 1 hr. The class given is in vitro ADME. How it is done:
as §1, §2, §3

The next data set has as its system Chymotrypsin. Briefly: Peptide conjugate digestion with Chymotrypsin. The data set is classed as in vitro ADME. To be noted: 37° C. for 1 hr. As to the method:
as §1, §2, §3

The next data set deals with Trypsin. Description: Peptide conjugate digestion with Trypsin. Particulars: 37° C. for 1 hr. The class given is in vitro ADME. How it is done: as §1, §2, §3
The next data set deals with Pronase. Briefly: Peptide conjugate digestion with Pronase. The data set is classed as in vitro ADME. Set-up: key to the marks not given beside the values. To be noted: 37° C. for 1 hr. As to the method:
as §1, §2, §3

The target of another data set is Kalikrein (Homo sapiens, UniProt P03952). Briefly: Peptide conjugate digestion with Kalikrein. Further details: digestion with Kalikrein: key to the marks not given beside the values. The class given is in vitro ADME. Particulars: 37° C. for 1 hr. How it is done:
as §1, §2, §3

The structures appear in SMILES notation. Residues, ends and D or L forms follow the SMILES beside them.

T1 sequence (P03952 20-638): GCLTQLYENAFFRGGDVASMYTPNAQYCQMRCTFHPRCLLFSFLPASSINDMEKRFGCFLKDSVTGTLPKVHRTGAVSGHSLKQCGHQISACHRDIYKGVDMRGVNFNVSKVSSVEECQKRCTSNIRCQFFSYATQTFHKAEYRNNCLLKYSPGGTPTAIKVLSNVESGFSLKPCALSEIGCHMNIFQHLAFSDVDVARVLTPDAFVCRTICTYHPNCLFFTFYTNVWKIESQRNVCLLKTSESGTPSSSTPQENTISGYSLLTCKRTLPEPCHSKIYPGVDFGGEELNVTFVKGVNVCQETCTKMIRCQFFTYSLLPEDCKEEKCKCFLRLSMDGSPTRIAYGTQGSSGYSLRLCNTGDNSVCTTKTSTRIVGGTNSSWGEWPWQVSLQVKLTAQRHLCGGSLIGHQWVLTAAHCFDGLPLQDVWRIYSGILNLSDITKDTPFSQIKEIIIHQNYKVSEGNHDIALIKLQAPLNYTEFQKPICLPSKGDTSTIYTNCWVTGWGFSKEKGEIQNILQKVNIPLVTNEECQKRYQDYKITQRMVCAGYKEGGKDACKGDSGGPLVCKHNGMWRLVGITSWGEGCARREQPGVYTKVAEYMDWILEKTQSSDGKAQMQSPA
bovine serum albumin (BSA), sequence (P02769 25-607): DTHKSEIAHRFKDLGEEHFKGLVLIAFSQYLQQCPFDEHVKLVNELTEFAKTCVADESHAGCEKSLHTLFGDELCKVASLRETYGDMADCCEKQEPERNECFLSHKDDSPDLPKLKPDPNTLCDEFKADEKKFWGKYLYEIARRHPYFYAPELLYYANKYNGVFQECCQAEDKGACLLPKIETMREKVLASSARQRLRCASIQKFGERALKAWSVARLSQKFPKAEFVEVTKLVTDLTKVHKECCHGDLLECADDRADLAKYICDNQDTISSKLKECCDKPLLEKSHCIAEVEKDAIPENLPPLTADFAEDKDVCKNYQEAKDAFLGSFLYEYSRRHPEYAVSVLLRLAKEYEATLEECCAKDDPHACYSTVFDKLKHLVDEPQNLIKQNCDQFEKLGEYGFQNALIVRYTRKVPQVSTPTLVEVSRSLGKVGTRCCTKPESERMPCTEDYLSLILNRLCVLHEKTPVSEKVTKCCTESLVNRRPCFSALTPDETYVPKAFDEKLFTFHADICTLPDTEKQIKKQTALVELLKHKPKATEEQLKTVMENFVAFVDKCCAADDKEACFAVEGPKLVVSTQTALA
Kalikrein, sequence (P03952 20-638): as the sequence (P03952 20-638) above

Take `CC[C@H](C)[C@@H]1NC(=O)[C@@H]2CSCc3cc4cc(c3)CSC[C@H](NC(=O)[C@H](CC(N)=O)NC(=O)[C@H](CCCNC(=N)N)NC(=O)[C@H](Cc3ccccc3)NC(=O)[C@H](CCCNC(=N)N)NC(=O)[C@H](CC(=O)O)NC(=O)[C@H](CO)NC(=O)[C@H](CSC4)NC(=O)[C@H](Cc3ccccc3)NC(=O)CNC(=O)[C@H](CC(C)C)NC(=O)[C@H](CC(=O)O)NC(=O)[C@H](Cc3ccccc3)NC1=O)C(=O)N1CCC[C@H]1C(=O)N[C@@H](C)C(=O)N[C@@H](CC(=O)O)C(=O)N[C@@H](CCC(=O)O)C(=O)N[C@@H](C)C(=O)N[C@@H](CC(C)C)C(=O)N2` [CG4L1-PK15L1-PK15L2 tricyclic] (HELM PEPTIDE1{A.D.E.A.L.C.I.F.D.L.G.F.C.S.D.R.F.R.N.C.P}|CHEM1{[c1c(C[*:1])cc(C[*:3])cc1C[*:2]]}$PEPTIDE1,CHEM1,6:R3-1:R1|PEPTIDE1,CHEM1,13:R3-1:R2|PEPTIDE1,CHEM1,20:R3-1:R3|PEPTIDE1,PEPTIDE1,1:R1-21:R2$$$V2.0): half-maximal inhibition against Kallikrein (IC50) required 15000 nM.

Turning to `NC(=O)[C@H](CC(=O)O)NC(=O)CNC(=O)[C@H](CO)NC(=O)CNC(=O)[C@H](Cc1ccccc1)NC(=O)OCC1c2ccccc2-c2ccccc21` [Fmoc-FGSGD-NH2] (HELM PEPTIDE1{[O=C(OCC1c2ccccc2-c2ccccc21)[*:2]].F.G.S.G.D.[am]}$$$$V2.0), the “fold tighter binding to BSA than the glycine variant Fmoc-GGSGD-NH2” value in data set [1] came to 8 fold.

Regarding `O=C(O)CNC(=O)OCC1c2ccccc2-c2ccccc21` [Fmoc-Gly-OH], in data set [1], binding was characterised by a dissociation constant (Kd) of 420 nM.

Take `COc1ccc2c(CC(=O)NCCCC[C@H](NC(=O)OCC3c4ccccc4-c4ccccc43)C(=O)O)cc(=O)oc2c1` [Fmoc-Lys-Mca]: binding in data set [1] was characterised by a dissociation constant (Kd) of 340 nM.

`NC(=O)[C@H](CC(=O)O)NC(=O)CNC(=O)[C@H](CO)NC(=O)CNC(=O)[C@H](Cc1c[nH]c2ccccc12)NC(=O)OCC1c2ccccc2-c2ccccc21` [Fmoc-WGSGD-NH2] (HELM PEPTIDE1{[O=C(OCC1c2ccccc2-c2ccccc21)[*:2]].W.G.S.G.D.[am]}$$$$V2.0): in data set [1], the Kd (as a rule, the constant that tells how readily two partners part at equilibrium) was ~60 nM and the “fold tighter binding to BSA than Fmoc-FGSGD-NH2” value is recorded as 3 fold.

For `COc1ccc2c(CC(=O)NCCCCC(N)C(=O)O)cc(=O)oc2c1` (centres unmarked) [Lys-Mca], the “binding to BSA (change in anisotropy)” value in data set [1] is on record as “no binding”.

On to `COc1ccc2c(CC(=O)O)cc(=O)oc2c1` [Mca-OH], for which the “binding to BSA (change in anisotropy)” value in data set [1] is reported as “did not bind BSA”.

Take `CC[C@H](C)[C@@H]1NC(=O)[C@@H]2CSCc3cc(cc(c3)CSC[C@@H](C(=O)NCC(=O)O)NC(=O)[C@H](Cc3ccccc3)NC(=O)CNC(=O)[C@H](CC(C)C)NC(=O)[C@H](CC(=O)O)NC(=O)[C@H](Cc3ccccc3)NC1=O)CSC[C@H](NC(=O)[C@H](C)N)C(=O)N[C@@H](CO)C(=O)N[C@@H](CC(=O)O)C(=O)N[C@@H](CCCNC(=N)N)C(=O)N[C@@H](Cc1ccccc1)C(=O)N[C@@H](CCCNC(=N)N)C(=O)N[C@@H](CC(N)=O)C(=O)N2` [PK15L1-CG4L1 bicyclic] (HELM PEPTIDE1{A.C.S.D.R.F.R.N.C.I.F.D.L.G.F.C.G}|CHEM1{[c1c(C[*:1])cc(C[*:3])cc1C[*:2]]}$PEPTIDE1,CHEM1,2:R3-1:R1|PEPTIDE1,CHEM1,9:R3-1:R2|PEPTIDE1,CHEM1,16:R3-1:R3$$$V2.0): the IC50 (as a rule, the concentration that inhibits the measured activity by half) at Kallikrein was 200 nM.

`CC[C@H](C)[C@@H]1NC(=O)[C@@H](NC(=O)[C@H](CC(C)C)NC(=O)[C@H](C)N)CSCc2cc3cc(c2)CSC[C@@H](C(=O)N2CCC[C@H]2C(=O)N[C@@H](C)C(=O)N[C@@H](CC(=O)O)C(=O)N[C@@H](CCC(=O)O)C(=O)O)NC(=O)[C@H](CC(N)=O)NC(=O)[C@H](CCCNC(=N)N)NC(=O)[C@H](Cc2ccccc2)NC(=O)[C@H](CCCNC(=N)N)NC(=O)[C@H](CC(=O)O)NC(=O)[C@H](CO)NC(=O)[C@H](CSC3)NC(=O)[C@H](Cc2ccccc2)NC(=O)CNC(=O)[C@H](CC(C)C)NC(=O)[C@H](CC(=O)O)NC(=O)[C@H](Cc2ccccc2)NC1=O` [X-CG4L1-PK15L1-Y bicyclic] (HELM PEPTIDE1{A.L.C.I.F.D.L.G.F.C.S.D.R.F.R.N.C.P.A.D.E}|CHEM1{[c1c(C[*:1])cc(C[*:3])cc1C[*:2]]}$PEPTIDE1,CHEM1,3:R3-1:R1|PEPTIDE1,CHEM1,10:R3-1:R2|PEPTIDE1,CHEM1,17:R3-1:R3$$$V2.0): the “digestion with Subtilisin” value with Subtilisin (0.009 μg enzyme per reaction) is listed as “+++”; with Subtilisin (9 μg enzyme per reaction), “−”. For the same molecule, the “digestion with Cathepsin G” value at Cathepsin G (0.01 μg enzyme per reaction) and at Cathepsin G (0.1 μg enzyme per reaction) was “+++” in each case. The “digestion with Chymotrypsin” value is reported as “+++” in the data set on Chymotrypsin (0.01 μg enzyme per reaction) and “−” in the data set with Chymotrypsin (10 μg enzyme per reaction). The “digestion with Trypsin” value was “+++” in the data set with Trypsin (0.01 μg enzyme per reaction) and “−” in the data set on Trypsin (10 μg enzyme per reaction). Besides, the “digestion with Pronase” value with Pronase (0.01 μg enzyme per reaction), with Pronase (0.1 μg enzyme per reaction) and in the data set on Pronase (1 μg enzyme per reaction) was “+++” throughout. In addition, 15000 nM corresponded to half-maximal inhibition against Kallikrein (IC50). In addition, the “digestion with Kalikrein” value on Kalikrein (0.01 μg enzyme per reaction) and on Kalikrein (0.1 μg enzyme per reaction) was “+++” throughout.

(Values after patent US9670482B2, “Multispecific peptides” (BICYCLE THERAPEUTICS LIMITED, priority 2009, dated 2017).)
